These results are taken from patent US10202372B2, “Trisubstituted pyrido[2,3-D]pyrimidines, methods for preparing same and therapeutic uses thereof” (CENTRE NATIONAL DE LA RECHERCHE SCIENTIFIQUE (C.N.R.S), priority 2012, dated 2019).

Counter-ions that a name gives are not always drawn. Where only a bound is given, the exact number is not on record here.

One assay deals with PI3Kα (Homo sapiens, UniProt P42336). As to the kind of experiment: PI3Kα kinase activity, Adapta TR-FRET ADP detection. It is filed as biochemical. Conditions: purified p110α/p85α heterodimer, triplicate; read-out: Kinases IC50 PI3Kα. Here is the method:
(§1) The activity of the PI3Kα kinase was evaluated by using a purified heterodimer (reference: PV4788 from Invitrogen) consisting of the α catalytic p110 subunit (PIK3CA) and the α regulation p85 subunit (PIK3R1). The assay of the kinase with the kit Adapta™ (reference: PV5099 from Invitrogen) is an enzymatic test based on the detection of ADP, produced during the reaction, by the fluorescence technique TR-FRET. It took place in a 384-well plate and was able to be divided into two phases: an enzymatic reaction phase, and a phase for detecting the ADP level.
(§2) During the enzymatic reaction phase, the following components were mixed in 10 μL of a same well: 2.5 μL of each dilution in series of inhibitors taken up in DMSO and then diluted to 1/25 in the reaction buffer (250 mM HEPES pH 7.5, 500 mM NaCl, 0.15 CHAPS, 5 mM EGTA, 15 mM MgCl2 and 1 mM DTT, ref.: PV5101 from Invitrogen), 2.5 μL of a solution containing PI3K at the optimum concentration (concentration defined according to the optimization step described in the operating procedure of the kit) diluted in the same reaction buffer, and finally, 5 μL of a solution containing 20 μM ATP and 100 μM PIP2 diluted in the reaction buffer. For each inhibitor concentration, the reaction was conducted in three copies (triplicate). The reaction was then incubated for 60 min at room temperature without any stirring in darkness.
(§3) During the phase for detecting ADP, 5 μL of a detection solution containing an anti-ADP antibody labeled with europium (6 nM), a tracer of the Alexa Fluor® 647 type coupled with ADP (30 nM), and EDTA (30 mM, for stopping the kinase reaction) were diluted in the dilution buffer (reference: PV3574 from Invitrogen). After 30 min of incubation at room temperature with stirring (40 rpm) in darkness, the 384-well plates were read in a plate reader Victor V configured for HTRF (Perkin Elmer). The excitation was produced at 340 nm and emission was measured at 665 nm and 615 nm. The inhibition curve was then plotted according to the emission ratio at 665 nm/615 nm versus the inhibitor concentration.
(§4) In order to obtain a linear response of the signal, a titration curve ATP-ADP, corresponding to the conversion % of ATP into ADP, was achieved by varying both of these species while keeping [ADP]+[ATP]=10 μM. The emission ratio at 665 nm/615 nm resulting from this (Y) was plotted versus the conversion % of ATP into ADP (X). The data of this curve were formatted according to a model with three hyperbolic parameters from the following equation: Y=C+A*(1−(X/(B+X))).
(§5) The software package GraphPad™ Prism® thus allows calculation of the parameters A, B and C. A conversion % corresponds to an emission ratio 665 nm/615 nm, this percentage is calculated by using the following equation: Conversion %=B*(C+A−Ratio)/(Ratio−C)
(§6) The three parameters A, B and C having been defined by the preceding equation, the conversion % was therefore able to be plotted versus the inhibitor concentration. The amount of inhibitor required for causing a 50% variation in the % conversion of ATP into ADP corresponds to the IC50 value of the inhibitor.
(TR-FRET usually uses a lanthanide donor and a delayed reading to cut background.)

The next assay addresses PI3Kγ (Homo sapiens, UniProt P48736). The assay is described as follows: PI3Kγ kinase activity, Adapta TR-FRET ADP detection. In kind it is biochemical. Conditions: p110γ catalytic subunit; read-out: Kinases IC50 PI3Kγ. On the procedure: as §1, §2, §3, §4, §5, §6
(§7) The activity of the kinase PI3Kγγ (PV4786 from Invitrogen) was evaluated on the p110γγ catalytic subunit (PI3KCG) and that of the kinase PI3Kδδ on the purified heterodimer (PV5273) respectively consisting of the δδ catalytic p110 subunit (PIK3CD) and the α regulation p85 subunit (PIK3R1) by following the same procedure.

Another assay concerns the target PI3Kδ (Homo sapiens, UniProt O00329). The assay is described as follows: PI3Kδ kinase activity, Adapta TR-FRET ADP detection. In kind it is biochemical. Conditions: purified p110δ/p85α heterodimer; read-out: Kinases IC50 PI3Kδ. On the procedure:
as §1, §2, §3, §4, §5, §6, §7

For the next assay, the target named is mTOR (Homo sapiens, UniProt P42345). The assay is described as follows: mTOR kinase activity, LANCE Ultra TR-FRET. In kind it is biochemical. Conditions: truncated mTOR protein, triplicate; read-out: Kinases IC50 mTOR. Here is the method:
The activity of the mTOR kinase was evaluated by using a purified truncated protein of the amino acids 1-1359 (reference: PV4753 from Invitrogen). The assay of the activity of the enzyme was carried out with the kit LANCE® Ultra which is an enzymatic test based on the detection of a phosphorylated peptide produced during the reaction, by using the fluorescence technique TR-FRET. It took place in a 384-well plate and was able to be divided into two phases: an enzymatic reaction phase and a phase for detecting the phosphorylated peptide.
During the enzymatic reaction phase, the following components were mixed in 10 μL of a same well: 5 μL of each dilution in series of inhibitors taken up in DMSO and then diluted to 1/25 in the reaction buffer (50 mM HEPES pH 7.5, 0.1% Tween-20, 1 mM EGTA, 10 mM MnCl2, 3 mM MgCl2 and 2 mM of DTT), 2.5 μL of a solution containing mTOR at the optimum concentration (concentration defined according to the optimization step described in the operating procedure of the kit) diluted in the same reaction buffer, and finally 2.5 μL of a solution containing 40 μM of ATP and 200 μM non-phosphorylated peptide diluted in the reaction buffer. For each inhibitor concentration, the reaction was conducted in three copies (triplicate). The reaction was then incubated for 120 min at room temperature without any stirring in darkness.
During the phase for detecting the phosphorylated peptide, 5 μL of an EDTA solution (32 mM) diluted in the dilution buffer (ref.: CR97-100 from Perkin Elmer) were injected into each well. After 5 min of incubation with stirring, 5 μL of a phosphorylated anti-peptide antibody solution labeled with europium (8 nM) and diluted in the same dilution buffer was added into each well. After 60 min of incubation at room temperature with stirring (40 rpm) in darkness, the 384-well plates were read in a plate reader Victor V configured for HTRF (Perkin Elmer). […] The inhibition curve was then plotted according to the fluorescence intensity value at 665 nm versus the inhibitor concentration.
The amount of inhibitor required for causing a 50% variation in the intensity of the signal corresponds to the IC50 value of the inhibitor.

The subject of a further assay is HUH7. The assay is described as follows: Toxicity test on cells, HUH7. In kind it is cell-based. Conditions: Homo sapiens, Huh-7; 48 hours of treatment, Hoechst nuclei staining. Here is the method:
(§8) The compounds according to the invention were also tested on the cell lines HuH7, CaCo-2, HCT116, PC3, NCl, HacaT and Fibroblasts.
(§9) Operating Procedure: The cells were cultivated according to the ECACC recommendations. The toxicity test of the compounds on these cells was conducted as follows: 4×10^3 cells/well were sown in 96 wells. 24 hours after sowing the cells, the cells were exposed to increased concentrations of the compounds (0.1 μM-0.3 μM-0.9 μM-2.7 μM-8.3 μM-25 μM). After 48 hours of treatment, the cells were washed in PBS and bound in a cold ethanol/acetic acid (90/5) mixture for 20 minutes. Next, the nuclei were coloured with […] (Sigma). The acquisition of images and the analysis was carried out by means of a reader Cellomics ArrayScan VTI/HCS (Thermo Scientific).

For another assay, the system named is CaCo2. The assay is described as follows: Toxicity test on cells, CaCo2. In kind it is cell-based. Conditions: Homo sapiens, Caco-2; 48 hours of treatment, Hoechst nuclei staining. On the procedure: as §8, §9
In a further assay the test system is MDA. The assay is described as follows: Toxicity test on cells, MDA. In kind it is cell-based. Conditions: 48 hours of treatment, Hoechst nuclei staining. On the procedure: [The procedure below names another cell line; the source lists this cell line under the same test.] as §8, §9
For another assay, the system named is HCT116. The assay is described as follows: Toxicity test on cells, HCT116. Conditions: Homo sapiens, HCT-116; 48 hours of treatment, Hoechst nuclei staining. It is filed as cell-based. Here is the method: as §8, §9
The next assay deals with PC3. As to the kind of experiment: Toxicity test on cells, PC3. It is filed as cell-based. Conditions: Homo sapiens, PC-3; 48 hours of treatment, Hoechst nuclei staining. Here is the method:
as §8, §9

A further assay concerns NCl. As to the kind of experiment: Toxicity test on cells, NCl. It is filed as cell-based. Conditions: 48 hours of treatment, Hoechst nuclei staining. On the procedure: as §8, §9
In another assay the test system is HacaT. The assay is described as follows: Toxicity test on cells, HacaT. It is filed as cell-based. Conditions: Homo sapiens, 48 hours of treatment, Hoechst nuclei staining. Here is the method:
as §8, §9

The subject of another assay is Fibroblasts. The assay is described as follows: Toxicity test on cells, Fibroblasts. In kind it is cell-based. Conditions: Fibroblast; 48 hours of treatment, Hoechst nuclei staining. On the procedure:
as §8, §9

Sequence of mTOR (P42345 1360-2549): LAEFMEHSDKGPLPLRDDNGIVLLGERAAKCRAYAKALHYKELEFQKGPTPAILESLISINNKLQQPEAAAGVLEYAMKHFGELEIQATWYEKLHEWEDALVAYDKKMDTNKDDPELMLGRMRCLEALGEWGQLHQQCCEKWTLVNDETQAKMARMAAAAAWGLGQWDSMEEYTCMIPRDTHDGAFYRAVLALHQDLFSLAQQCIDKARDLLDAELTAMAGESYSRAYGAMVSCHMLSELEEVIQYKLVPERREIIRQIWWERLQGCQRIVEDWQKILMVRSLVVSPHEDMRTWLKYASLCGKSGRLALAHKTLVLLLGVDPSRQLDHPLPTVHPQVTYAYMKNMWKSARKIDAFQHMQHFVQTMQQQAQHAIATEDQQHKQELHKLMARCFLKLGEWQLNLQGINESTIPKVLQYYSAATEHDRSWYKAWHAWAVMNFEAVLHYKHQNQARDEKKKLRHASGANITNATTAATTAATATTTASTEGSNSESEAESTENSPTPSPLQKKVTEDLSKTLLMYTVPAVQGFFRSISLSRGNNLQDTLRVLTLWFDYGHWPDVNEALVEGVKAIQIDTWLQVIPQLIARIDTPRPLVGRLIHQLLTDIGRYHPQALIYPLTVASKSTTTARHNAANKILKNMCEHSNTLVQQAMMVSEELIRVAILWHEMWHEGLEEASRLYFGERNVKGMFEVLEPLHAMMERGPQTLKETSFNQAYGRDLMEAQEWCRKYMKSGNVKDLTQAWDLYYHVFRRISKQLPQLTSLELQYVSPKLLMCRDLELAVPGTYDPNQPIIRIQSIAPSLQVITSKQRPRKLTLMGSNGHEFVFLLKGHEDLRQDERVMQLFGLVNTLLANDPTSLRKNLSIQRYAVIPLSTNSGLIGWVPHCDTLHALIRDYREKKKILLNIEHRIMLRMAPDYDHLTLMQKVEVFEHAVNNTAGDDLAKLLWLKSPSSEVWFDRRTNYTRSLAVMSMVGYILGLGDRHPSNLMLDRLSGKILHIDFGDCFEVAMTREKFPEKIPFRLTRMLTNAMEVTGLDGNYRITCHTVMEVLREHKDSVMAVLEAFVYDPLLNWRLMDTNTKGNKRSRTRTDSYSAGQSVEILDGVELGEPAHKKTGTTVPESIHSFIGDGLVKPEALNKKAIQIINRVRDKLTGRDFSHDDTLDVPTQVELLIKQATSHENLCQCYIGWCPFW
Sequence of PI3Kγ (P48736 whole entry): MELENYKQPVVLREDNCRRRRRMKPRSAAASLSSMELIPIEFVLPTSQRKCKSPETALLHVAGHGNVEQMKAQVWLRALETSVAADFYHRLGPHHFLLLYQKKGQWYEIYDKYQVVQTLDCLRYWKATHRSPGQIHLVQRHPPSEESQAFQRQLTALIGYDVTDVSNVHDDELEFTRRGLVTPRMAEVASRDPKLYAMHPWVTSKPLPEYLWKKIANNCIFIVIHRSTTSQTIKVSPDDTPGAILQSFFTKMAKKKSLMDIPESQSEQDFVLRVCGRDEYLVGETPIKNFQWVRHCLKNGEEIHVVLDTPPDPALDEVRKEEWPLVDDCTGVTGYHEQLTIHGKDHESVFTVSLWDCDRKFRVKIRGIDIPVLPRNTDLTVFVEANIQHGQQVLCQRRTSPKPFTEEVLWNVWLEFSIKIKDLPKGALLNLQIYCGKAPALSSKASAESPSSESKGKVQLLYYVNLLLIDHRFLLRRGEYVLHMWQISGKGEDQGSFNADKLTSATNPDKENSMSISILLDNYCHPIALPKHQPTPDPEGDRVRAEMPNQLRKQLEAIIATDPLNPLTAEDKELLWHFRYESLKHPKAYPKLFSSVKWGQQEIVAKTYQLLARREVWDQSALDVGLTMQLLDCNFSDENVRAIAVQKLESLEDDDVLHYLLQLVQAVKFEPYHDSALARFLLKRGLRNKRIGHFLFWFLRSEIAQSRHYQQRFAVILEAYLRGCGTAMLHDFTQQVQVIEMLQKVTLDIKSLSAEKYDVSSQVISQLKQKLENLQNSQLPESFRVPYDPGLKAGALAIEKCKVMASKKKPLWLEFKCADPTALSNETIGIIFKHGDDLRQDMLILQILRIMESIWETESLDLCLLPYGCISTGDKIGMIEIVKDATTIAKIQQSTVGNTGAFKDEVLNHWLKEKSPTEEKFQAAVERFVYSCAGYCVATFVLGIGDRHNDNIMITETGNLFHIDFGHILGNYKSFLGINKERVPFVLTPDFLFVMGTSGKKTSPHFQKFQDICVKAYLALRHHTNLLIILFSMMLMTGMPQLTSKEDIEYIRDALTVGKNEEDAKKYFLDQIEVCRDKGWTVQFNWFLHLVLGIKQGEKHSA
Sequence of PI3Kα (P42336 whole entry): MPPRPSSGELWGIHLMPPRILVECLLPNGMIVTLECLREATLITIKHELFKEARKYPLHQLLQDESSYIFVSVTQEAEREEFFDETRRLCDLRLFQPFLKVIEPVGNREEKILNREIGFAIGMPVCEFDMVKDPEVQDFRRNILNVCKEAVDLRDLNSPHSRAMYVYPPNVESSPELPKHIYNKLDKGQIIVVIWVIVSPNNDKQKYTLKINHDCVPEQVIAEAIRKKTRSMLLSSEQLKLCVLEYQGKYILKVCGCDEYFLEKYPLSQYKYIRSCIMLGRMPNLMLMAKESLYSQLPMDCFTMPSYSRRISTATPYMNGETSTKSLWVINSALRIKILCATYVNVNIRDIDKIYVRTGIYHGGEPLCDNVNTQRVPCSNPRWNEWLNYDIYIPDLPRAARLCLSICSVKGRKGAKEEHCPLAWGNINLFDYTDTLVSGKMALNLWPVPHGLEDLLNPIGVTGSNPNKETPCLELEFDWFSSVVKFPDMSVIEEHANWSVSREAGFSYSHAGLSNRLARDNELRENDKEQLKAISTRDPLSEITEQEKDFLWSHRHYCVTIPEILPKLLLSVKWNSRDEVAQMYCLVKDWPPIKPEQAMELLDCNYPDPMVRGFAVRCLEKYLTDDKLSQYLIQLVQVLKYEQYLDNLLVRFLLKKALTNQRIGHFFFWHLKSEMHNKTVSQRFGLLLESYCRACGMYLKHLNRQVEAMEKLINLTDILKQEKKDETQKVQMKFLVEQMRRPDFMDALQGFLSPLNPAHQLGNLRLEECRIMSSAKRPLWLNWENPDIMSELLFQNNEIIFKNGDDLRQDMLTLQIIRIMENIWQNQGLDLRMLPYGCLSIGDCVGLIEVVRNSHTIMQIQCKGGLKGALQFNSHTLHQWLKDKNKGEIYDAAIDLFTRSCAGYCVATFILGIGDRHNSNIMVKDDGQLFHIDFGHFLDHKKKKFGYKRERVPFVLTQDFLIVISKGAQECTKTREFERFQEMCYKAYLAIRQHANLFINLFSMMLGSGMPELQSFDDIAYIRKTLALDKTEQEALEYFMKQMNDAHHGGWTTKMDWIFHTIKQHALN
Sequence of PI3Kα (P27986 whole entry partner): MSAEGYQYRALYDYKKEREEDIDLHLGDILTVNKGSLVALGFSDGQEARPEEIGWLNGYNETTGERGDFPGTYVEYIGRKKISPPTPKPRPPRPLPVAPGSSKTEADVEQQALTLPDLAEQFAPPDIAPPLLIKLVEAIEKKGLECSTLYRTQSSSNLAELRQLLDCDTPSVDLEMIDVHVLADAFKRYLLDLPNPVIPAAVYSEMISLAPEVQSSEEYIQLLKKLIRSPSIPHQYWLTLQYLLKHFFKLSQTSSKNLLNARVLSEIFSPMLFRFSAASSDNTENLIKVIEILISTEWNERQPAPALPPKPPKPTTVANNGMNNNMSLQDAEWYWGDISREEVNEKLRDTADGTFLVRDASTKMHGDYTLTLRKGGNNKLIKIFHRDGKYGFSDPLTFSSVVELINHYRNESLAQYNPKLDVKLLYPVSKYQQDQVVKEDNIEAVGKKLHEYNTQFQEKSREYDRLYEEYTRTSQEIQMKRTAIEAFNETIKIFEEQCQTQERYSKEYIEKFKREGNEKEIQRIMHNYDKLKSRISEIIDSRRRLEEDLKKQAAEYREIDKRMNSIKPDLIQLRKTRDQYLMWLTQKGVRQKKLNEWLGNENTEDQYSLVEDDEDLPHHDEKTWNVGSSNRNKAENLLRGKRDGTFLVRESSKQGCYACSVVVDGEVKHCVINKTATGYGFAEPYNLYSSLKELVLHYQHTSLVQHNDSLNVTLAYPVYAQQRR

For `Oc1cccc(-c2nc(N3CCOCC3)c3ncc(Cl)cc3n2)c1` [Compound 6, 3-(7-Chloro-4-morpholinopyrido[3,2-d]pyrimidin-2-yl)phenol], the IC50 (in general, the concentration that inhibits the measured activity by half) turned out to be 12 nM at PI3Kα; 273 nM on PI3Kγ; 10 nM on PI3Kδ; 183 nM at mTOR; 0.8 µM in the assay on HUH7; 8 µM in the assay with CaCo2. The IC50 with MDA was over 25 µM; in the assay with HCT116 it was 9 µM; with PC3, over 25 µM; in the assay on NCl, over 25 µM; in the assay with HacaT, 4 µM; in the assay with Fibroblasts it was over 25 µM.
As to `C=Cc1cnc2c(N3CCOCC3)nc(-c3cccc(CO)c3)nc2c1` [Compound 17, (3-(4-Morpholino-7-vinylpyrido[3,2-d]pyrimidin-2-yl)phenyl)methanol], the IC50 with HUH7 was 15 µM; with CaCo2, 5 µM; in the assay on MDA, over 25 µM; with HCT116, 6 µM; with PC3, 25 µM; in the assay with NCl, over 25 µM. In addition, the results for the IC50 with HacaT and in the assay with Fibroblasts were 4 µM and over 25 µM, respectively.
Consider `Oc1cccc(-c2nc(N3CCOCC3)c3ncc(CNC4CC4)cc3n2)c1` [Compound 27, 3-(7-((cyclopropylamino)methyl)-4-morpholinopyrido[3,2-d]pyrimidin-2-yl)phenolhydrochloride], for which the IC50 at PI3Kα is 109 nM; at PI3Kγ it was 428 nM; on PI3Kδ it was 11 nM; at mTOR, 249 nM; in the assay with HUH7, over 25 µM; in the assay with CaCo2, 3 µM. Further, the IC50 in the assay with MDA is over 25 µM; in the assay on HCT116, 5 µM; with PC3 it was 2 µM; in the assay with NCl, over 25 µM; in the assay with HacaT, over 25 µM; in the assay on Fibroblasts it was over 25 µM.
Take `Oc1cccc(-c2nc(N3CCOCC3)c3ncc(CNC4CCCCC4)cc3n2)c1` [Compound 28, 3-(7-((cyclohexylamino)methyl)-4-morpholinopyrido[3,2-d]pyrimidin-2-yl)phenol hydrochloride]: the IC50 stood at 358 nM at PI3Kα; 769 nM at PI3Kγ; 213 nM at PI3Kδ; 1200 nM at mTOR; 15 µM in the assay with HUH7; 10 µM with CaCo2. Moreover, the IC50 with MDA was over 25 µM; in the assay with HCT116, 20 µM; with PC3 it was 25 µM; with NCl, 25 µM; in the assay on HacaT, 20 µM; in the assay with Fibroblasts it was over 25 µM.
As for `OCc1cnc2c(N3CCOCC3)nc(-c3cccc(O)c3)nc2c1` [Compound 34, 3-(7-(hydroxymethyl)-4-morpholinopyrido[3,2-d]pyrimidin-2-yl)phenol], the IC50 at PI3Kα is 366 nM; on PI3Kγ it was 22 nM; at PI3Kδ, 126 nM; at mTOR, 350 nM; with HUH7 it was 1 µM; in the assay on CaCo2 it was 1.5 µM. Also, the IC50 in the assay with MDA was 25 µM; in the assay on HCT116, 3 µM; in the assay on PC3, 5 µM; in the assay on NCl, over 25 µM; in the assay with Fibroblasts, 25 µM.
For the compound `Oc1cccc(-c2nc(N3CCOCC3)c3ncc(CN4CCN(C5CCCCC5)CC4)cc3n2)c1` [Compound 56, 3-{7-[(4-cyclohexylpiperazin-1-yl)methyl]-4-(morpholin-4-yl)pyrido[3,2-d]pyrimidin-2yl}phenol], the 50% inhibitory concentration (IC50) at PI3Kα was 11 nM; in the assay with HUH7, 6 µM; with CaCo2, 6 µM; with MDA, 12 µM; in the assay with HCT116, 7 µM; in the assay on PC3, 8 µM. The IC50 worked out at 11 µM in the assay on NCl, 8 µM with HacaT and 10 µM with Fibroblasts.
With `COCc1cn(Cc2cnc3c(N4CCOCC4)nc(-c4ccc(NC(=O)Nc5ccc(CO)cc5)cc4)nc3c2)nn1` [Compound 81, 1-[4-(hydroxymethyl)phenyl]-3-[4-(7-{[4-(methoxymethyl)-1H-1,2,3-triazol-1-yl]methyl}-4-(morpholin-4-yl)pyrido[3,2-d]pyrimidin-2-yl)phenyl]urea], the IC50 on PI3Kα was found to be 3 nM; with HUH7, 7 µM; with CaCo2 it was 2 µM; in the assay with MDA it was 0.5 µM; with HCT116 it was 0.1 µM; in the assay with PC3 it was 0.1 µM. Besides, the values for the IC50 with NCl, with HacaT and with Fibroblasts were 0.3 µM, 0.3 µM and over 25 µM, respectively.
